Source: patent publication US20250235545A1, “POLYPEPTIDE CONJUGATE AND USE THEREOF” (SHANGHAI CHIXI BIOMEDICAL TECHNOLOGY CO., LTD, priority 2024, published 2025)
In brackets after ≈: the same amount, converted by molar mass. Where two headings read alike, the source gives them in different places. Where a SMILES comes first, the peptide text is derived from it. The star is where a group is joined. Belotecan = CC[C@@]1(O)C(=O)OCc2c1cc1n(c2=O)Cc2c-1nc1ccccc1c2CCN(C(C)C)*; X8 = CC[C@@]1(O)C(=O)OCc2c1cc1n(c2=O)Cc2c-1nc1ccccc1c2CCN(C1CCCC1)*; X4 = CCCN(CCc1c2c(nc3ccccc13)-c1cc3c(c(=O)n1C2)COC(=O)[C@]3(O)CC)*; Propanoyl(3-maleimido) = O=C1C=CC(=O)N1CCC(=O)*; PEG6 = NCCOCCOCCOCCOCCOCCOCCC(=O)O

Tests used:
[1] = Tumor homogenate activation efficiency, ovarian cancer tissue (Examples 28, 37); format: in vitro ADME; conditions: pH 5.0, 37° C., 2 h; Table 5
Protocol: (§1) Buffer preparation: 50 mM PH buffer (MES), 250 mM NaCl, pH adjusted to 5.0 with 0.5 M of sodium hydroxide.
(§2) The polypeptide conjugate was prepared into a 1 mg/ml solution with pH 5.0 buffer, 100 μg of tumor tissue homogenate was added, (the tumor tissue homogenate was the homogenate of tumor tissues prepared with a Jingxin F6/10 handheld homogenizer), and the solution was placed at 37° C. for 2 h. The tumor tissue homogenate could effectively activate the polypeptide conjugate and release Belotecan, and the activation efficiencies of the drugs in tumor tissues were compared by high-performance liquid chromatography (HPLC) allowing determination of a decrease in the compounds and an increase in Belotecan:
(§3) Release percentage=peak area of Belotecan/total peak area of Belotecan and all other Belotecan-containing compounds
(§4) The polypeptide conjugate was prepared into a 1 mg/ml solution with pH 5.0 buffer, 100 μg of tumor tissue homogenate was added, (the tumor tissue homogenate was the homogenate of tumor tissues prepared with a Jingxin F6/10 handheld homogenizer), and the solution was placed at 37° C. for 2 h. The tumor tissue homogenate could effectively activate the polypeptide conjugate and release Belotecan, and the activation efficiencies of the drugs in tumor tissues were compared by HPLC allowing determination of a decrease in the compounds and an increase in Belotecan: […]

[2] = test system: sarcoma SJSA-1 tumor model; assay: Efficacy in animal model of sarcoma SJSA-1, 30 mg/kg once a week for two weeks (Example 40); format: in vivo, BALB/c mice; conditions: 30 mg/kg once a week for two weeks
Protocol: Test objective: To further compare the antitumor efficacy of different polypeptide Linkers in an animal tumor model of sarcoma SJSA-1.
(§5) Test drug: Polypeptide conjugate and normal saline control group.
The control group was administered normal saline. Administration was performed once a week for two weeks.

[3] = test system: colo320 colorectal cancer tumor model
Summary of the method: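 Female BALB/c nude mice, 6–8 weeks old, received 7.5×10^6 colo320 cells subcutaneously in the right chest. Once tumors reached at least 120 mm^3 they were randomized three per group. Treatment with test agents or saline control was given once weekly for four weeks.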

[4] = test system: A2780 ovarian cancer tumor model; assay: Efficacy in animal model of A2780 ovarian cancer, 30 mg/kg once a week for two weeks (Example 41); format: in vivo, BALB/c mice
Protocol: Test objective: To further compare the antitumor efficacy of different polypeptide Linkers in an animal tumor model of A2780 ovarian cancer.
as §5
8×10^6 corresponding cells were injected into right axillas of nude mice subcutaneously. […] The negative control group was administered normal saline. Administration was performed once a week for two weeks.

[5] = Tumor homogenate activation efficiency, non-small cell lung cancer tissue (Examples 28, 37); format: in vitro ADME; conditions: pH 5.0, 37° C., 2 h; Table 5
Protocol: as §1, §2, §3, §4

[6] = test system: sarcoma SJSA-1 tumor model; conditions: Table 2
Summary of the method: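 SJSA-1 cells (2×10^7, DMEM/10% FBS, under 15 passages) implanted subcutaneously in right chest of female BALB/c nude mice, 6-8 weeks old. At ≥100 mm^3, randomized three per group; dosing once weekly for three weeks, saline as control, day 1 = first treatment.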

[7] = Tumor homogenate activation efficiency, small cell lung cancer tissue (Example 28); format: in vitro ADME; conditions: pH 5.0, 37° C., 2 h; Table 5
Protocol: as §1, §2, §3

[8] = Homogenate activation efficiency, heart tissue (Examples 28, 37); format: in vitro ADME; conditions: pH 5.0, 37° C., 2 h; Table 5
[9] = Tumor homogenate activation efficiency, sarcoma tissue (Examples 28, 37); format: in vitro ADME; conditions: pH 5.0, 37° C., 2 h; Table 5
Protocol: as §1, §2, §3, §4

A2780 (ovarian cancer) = assay: cells; format: cell-based; conditions: CCK8, 48 h; Table 1
Summary of the method: (§6)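 Cells in RPMI1640 or high-glucose DMEM with 10% FBS, P/S and 1 mM sodium pyruvate were seeded at 5,000 cells/well into graded drug concentrations, with 0.1% DMSO controls, in triplicate. After 48 h at 37° C/5% CO2, CCK8 was added for about 2 h and absorbance read at 450 nm; survival and IC50 were calculated.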

[10] = test system: A549 (non-small cell lung cancer); assay: cells; format: cell-based; conditions: CCK8, 48 h; Table 1
Summary of the method: as §6

[11] = test system: SKBR3 (breast cancer tissue); assay: cells; format: cell-based; conditions: CCK8, 48 h; Table 1
Summary of the method: as §6

SJSA-1 (sarcoma tissue) = assay: cells; format: cell-based; conditions: CCK8, 48 h; Table 1
Summary of the method: as §6

[12] = Tumor homogenate activation efficiency, breast cancer tissue (Examples 28, 37); format: in vitro ADME; conditions: pH 5.0, 37° C., 2 h; Table 5
Protocol: as §1, §2, §3, §4

[13] = MTD determination in mice (Examples 27, 36, 44); format: in vivo; conditions: female, mouse, in vivo; mice, monitored for 14 d; Table 4
From the text: Test animals: 6-8 weeks old mice, all female; mice were grouped randomly, with six mice in each group, administered with drugs at different concentration gradients separately and monitored for 14 d. A mouse was euthanized at a loss of 20% of its initial weight and deemed to have died of poisoning.

[14] = 15 mg/kg once a week for four weeks, Table 3
[15] = 45 mg/kg once a week for four weeks, Table 3
[16] = 15 mg/kg once a week for three weeks
[17] = 45 mg/kg once a week for three weeks
[18] = Table 13 (Example 42), dose 45 mg/kg, once a week for four weeks, BALB/c mice
[19] = Table 14 (Example 43), dose 45 mg/kg, once a week for four weeks, BALB/c mice

SMILES	Percentage of release efficiency (%) Ovarian cancer tissue (A2780) [1] [%]	Mouse weight (%) [3, 14]	colo320 (colorectal cancer cell) growth rate (%) [3, 14] [%]	colo320 (colorectal cancer cell) mean tumor volume (mm^3) [3, 14] [mm^3]	Mouse weight (%) [3, 15]	colo320 (colorectal cancer cell) growth rate (%) [3, 15] [%]	colo320 (colorectal cancer cell) mean tumor volume (mm^3) [3, 15] [mm^3]	Percentage of release efficiency (%) Non-small cell lung cancer tissue (A549) [5] [%]	Mouse weight (%) [6, 16]	SJSA-1 (sarcoma tissue) mean tumor volume (mm^3) [6, 16] [mm^3]	SJSA-1 (sarcoma) Growth rate (%) [6, 16] [%]	Percentage of release efficiency (%) Small cell lung cancer tissue (NCI-H841) [7] [%]	Percentage of release efficiency (%) Heart tissue [8] [%]	Percentage of release efficiency (%) Sarcoma tissue (SJSA1) [9] [%]	IC50 A2780 (ovarian cancer) (A2780 (ovarian cancer)) [µg/mL]	IC50 A549 (non-small cell lung cancer) [10] [µg/mL]	IC50 SKBR3 (breast cancer tissue) [11] [µg/mL]	IC50 SJSA-1 (sarcoma tissue) (SJSA-1 (sarcoma tissue)) [µg/mL]	Percentage of release efficiency (%) Breast cancer tissue (SKBR3) [12] [%]	MTD at 14 d [13] [mg/kg]	also measured
CCCN(CCc1c2c(nc3ccccc13)-c1cc3c(c(=O)n1C2)COC(=O)[C@]3(O)CC)C(=O)CNC(=O)[C@H](CC(N)=O)NC(=O)[C@H](C)NC(=O)[C@H](C)NC(=O)CCOCCOCCOCCOCCOCCOCCNC(=O)CCN1C(=O)C=CC1=O [MI-6PEG-AANG-D3] ({Propanoyl(3-maleimido)-PEG6}-AANG-X4)	76.2	+31%	985.14	1091.1	+20%	481.06	532.8	82.6	+29%	1325.4	1095.4	71.2	3.6	88.9	1.80 (≈ 1.46 µM)	3.41 (≈ 2.76 µM)	2.42 (≈ 1.96 µM)	1.63 (≈ 1.32 µM)	84.6	350	SJSA-1 (sarcoma tissue) mean tumor volume (mm^3) Day 1 ([2]; Day 1): 132.12 mm^3; SJSA-1 (sarcoma tissue) mean tumor volume (mm^3) Day 4 ([2]; Day 4): 360.28 mm^3; SJSA-1 (sarcoma tissue) mean tumor volume (mm^3) Day 7 ([2]; Day 7): 610.04 mm^3; SJSA-1 (sarcoma tissue) mean tumor volume (mm^3) Day 10 ([2]; Day 10): 833.76 mm^3; Mouse weight (%) on Day 14 ([2]; Day 14): +3.6%; SJSA-1 (sarcoma tissue) growth rate (%) on Day 14 ([2]; Day 14): 1002.12%; SJSA-1 (sarcoma tissue) mean tumor volume (mm^3) Day 14 ([2]; Day 14): 1324.00 mm^3; A2780 (ovarian cancer) mean tumor volume (mm^3) Day 1 ([4]; Day 1): 138.55 mm^3; A2780 (ovarian cancer) mean tumor volume (mm^3) Day 4 ([4]; Day 4): 302.74 mm^3; A2780 (ovarian cancer) mean tumor volume (mm^3) Day 7 ([4]; Day 7): 742.51 mm^3; A2780 (ovarian cancer) mean tumor volume (mm^3) Day 10 ([4]; Day 10): 898.06 mm^3; A2780 (ovarian cancer) mean tumor volume (mm^3) Day 14 ([4]; Day 14): 1141.65 mm^3; Growth rate (%) of A2780 (ovarian cancer) on Day 14 ([4]; Day 14): 824.00%; Mouse weight (%) on Day 14 ([4]; Day 14): +11.4%; Mouse weight (%) [6, 17]: +26%; SJSA-1 (sarcoma tissue) mean tumor volume (mm^3) [6, 17]: 1098.2 mm^3; SJSA-1 (sarcoma) Growth rate (%) [6, 17]: 930.68%
CC[C@@]1(O)C(=O)OCc2c1cc1n(c2=O)Cc2c-1nc1ccccc1c2CCN(C(=O)CNC(=O)[C@H](CC(N)=O)NC(=O)[C@H](C)NC(=O)[C@H](C)NC(=O)CCOCCOCCOCCOCCOCCOCCNC(=O)CCN1C(=O)C=CC1=O)C1CCCC1 [MI-6PEG-AANG-D8] ({Propanoyl(3-maleimido)-PEG6}-AANG-X8)	70.1	–	–	–	+21%	–	–	85.1	+35%	–	–	80.8	3	71.1	1.21 (≈ 0.961 µM)	2.51 (≈ 1.99 µM)	2.55 (≈ 2.02 µM)	0.87 (≈ 0.691 µM)	70.9	400	–
CC[C@@]1(O)C(=O)OCc2c1cc1n(c2=O)Cc2c-1nc1ccccc1c2CCN(C(=O)CNC(=O)[C@H](Cc1ccccc1)NC(=O)CNC(=O)CNC(=O)CCOCCOCCOCCOCCOCCOCCNC(=O)CCN1C(=O)C=CC1=O)C(C)C [MI-6PEG-GGFG-Belotecan] ({Propanoyl(3-maleimido)-PEG6}-GGFG-Belotecan)	81.5	+27%	1057.73	1171.5	+34%	525.03	581.5	72.7	+29%	1453.1	1257.35	77.3	1.9	83.4	2.60 (≈ 2.1 µM)	3.61 (≈ 2.92 µM)	6.15 (≈ 4.97 µM)	1.50 (≈ 1.21 µM)	67.7	180	Mouse weight (%) [3, 18]: +34%; colo320 (colorectal cancer cell) growth rate (%) [3, 18]: 525.03%; colo320 (colorectal cancer cell) mean tumor volume (mm^3) [3, 18]: 581.5 mm^3; Mouse weight (%) [3, 19]: +34%; colo320 (colorectal cancer cell) growth rate (%) [3, 19]: 525.03%; colo320 (colorectal cancer cell) mean tumor volume (mm^3) [3, 19]: 581.5 mm^3; Mouse weight (%) [6, 17]: +31%; SJSA-1 (sarcoma tissue) mean tumor volume (mm^3) [6, 17]: 979.5 mm^3; SJSA-1 (sarcoma) Growth rate (%) [6, 17]: 844.40%
CC[C@@]1(O)C(=O)OCc2c1cc1n(c2=O)Cc2c-1nc1ccccc1c2CCN(C(=O)CNC(=O)[C@H](Cc1ccccc1)NC(=O)CNC(=O)CNC(=O)CCOCCOCCOCCOCCOCCOCCNC(=O)CCN1C(=O)C=CC1=O)C1CCCC1 [MI-6PEG-GGFG-D8] ({Propanoyl(3-maleimido)-PEG6}-GGFG-X8)	76	–	–	–	+17%	–	–	77.5	+19%	–	–	66.7	3.1	72.7	3.77 (≈ 2.98 µM)	4.93 (≈ 3.9 µM)	11.26 (≈ 8.91 µM)	2.35 (≈ 1.86 µM)	81.2	250	–
